Our source for the hemolysis and viability values is paper PMC9644403, “L-type Amino Acid Transporter 1 Utilizing Ferulic Acid Derivatives Show Increased Drug Delivery in the Mouse Pancreas Along with Decreased Lipid Peroxidation and Prostaglandin Production” (Molecular Pharmaceutics, 2022).

Molecules are shown by their SMILES.

Data set [1] can be described thus: RBC lysis assay (hemolysis). The conditions noted are these: 2% erythrocyte (RBC) suspension, human RBCs, 37 °C, Triton X = 100%, control 2.08 ± 0.15%, read-out: hemolysis rate. The class given is cell-based. As for the experimental part: To further evaluate the safety of derivatives in human blood, the effects of FA, D1, and D2 on hemolysis were studied using a previously described protocol.[31] Shortly, freshly collected erythrocytes were washed three times with 1 mL of 0.9% saline (Sigma-Aldrich, Germany). Subsequently, 2% RBC suspension was prepared by diluting 1 mL of erythrocytes in 50 mL of 0.9% saline. FA, D1, and D2 (1–100 μM) were incubated with the RBC suspension at 37 °C for 1 h. Additionally, negative controls containing 0.9% NaCl and positive controls with Triton X-100 (Polish Chemical Reagents, Poland) were studied. After incubation, the samples were centrifuged at 3 000 rpm for 10 min, and the absorbance values were measured from the collected supernatants at the wavelength of 550 nm. Samples with Triton X (positive control) represented 100% hemolysis. Results of the studies are presented as a percentage of released hemoglobin. The counted CV was 8.1% (n = 5). Additionally, the influence of FA and its derivatives (25–100 μM) on RBC morphology was studied using a phase contrast Opta-Tech inverted microscope. The morphology was analyzed using a dedicated OptaView 7 software (Opta-Tech, Warsaw, Poland).

Data set [2] in a line: HUVEC viability, WST-1 assay. It is filed as cell-based, human. The conditions noted are these: human, HUVEC cells; WST-1, 24 h, % of control, mean ± SD (n = 6–8). The procedure: As a third in vitro toxicity study in the human blood circulation system, the effects of FA, D1, and D2 on the viability of human umbilical vein endothelial cells (HUVECs; RRID CVCL_2959; Lonza, Italy; Cat. no. CC-2517) were determined using the WST-1 assay (Takara, Takara Bio Europe, Europe, Saint-Germain-en-Laye, France), according to the previously published protocol.[32] Briefly, the cells were cultured according to the manufacturer’s guidelines with the following ingredients: EGM-2-medium + bullet kit (Lonza, Clonetics, Italy), accutase (Sigma-Aldrich, Germany), and HEPES-buffered saline solution (Lonza, Basel, Switzerland). For the assay, the cells were seeded at the density of 7 500 HUVECs per well on 96-well plates and cultured for 24 h to obtain 70% confluency. Subsequently, the cells were treated with studied compounds in multiplicate (n = 6–8) at the concentration of 0.1–100 μM in the growth medium for 24 h (37 °C, 5% CO2). Cells with untreated growth medium represented 100% viability, whereas cells treated with medium containing 0.5% (v/v) methanol served as a negative control for drug solvent. After treating cells for 24 h, medium was removed, the cells were washed with the culture medium (100 μl/well), and 100 μL of WST-1 reagent dissolved in culture medium was added into each well. The plates were incubated at 37 °C with 5% CO2 for 2 h, after which absorbance values were measured at the 450 nm wavelength using a microplate reader (iMARK, Bio-Rad). Additionally, the effects of treatments on HUVEC morphology were examined microscopically using a phase-contrast Opta-Tech inverted microscope equipped with OptaView 7 software (Opta-Tech, Warsaw, Poland) for image analysis.
For orientation: Tetrazolium dyes change colour on reduction, which living cells bring about.

A word on the viability: it is a read-out of living cells in per cent, often relative to untreated cells. High values mean better survival, low ones a greater loss of cells.

In the case of `COc1cc(C=CC(=O)O)ccc1O` [ferulic acid, 4-hydroxy-3-methoxycinnamic acid], the hemolysis at 1 h, 100 µM in data set [1] turned out to be 2.38 ± 1.84%. In data set [2], this molecule gave a viability at 24 h, 100 µM of 62.6 ± 15%.
Take `COc1cc(C=CC(=O)NCc2cccc(CC(N)C(=O)O)c2)ccc1O` (centres unmarked) [derivative 1]: the hemolysis at 1 h, 100 µM in data set [1] amounted to 3.58 ± 0.69%. In data set [2], this molecule registered a viability at 24 h, 50 µM of 89 ± 7.27% and a viability at 24 h, 100 µM of 80.7 ± 4.26%.
On to `COc1cc(/C=C/C(=O)Nc2cccc(C[C@H](N)C(=O)O)c2)ccc1O` [derivative 2], for which, in data set [1], the hemolysis at 1 h, 100 µM stood at 1.97 ± 1.25%. In data set [2], this molecule registered a viability at 24 h, 50 µM of 73.5 ± 14.7% and a viability at 24 h, 100 µM of 60.3 ± 16.9%.
